These results are taken from PubChem BioAssay (NCI).

What all share (assay): growth of human tumour cells (NCI), 48 h
Test [1] deals with UACC-257 melanoma.
In test [2] the test system is OVCAR-8 ovarian.
Test [3] deals with UACC-62 melanoma.
Test [4] deals with SK-OV-3 ovarian.
The test system of test [5] is SN12C renal.
Test [6] has as its system NCI-H522 lung.

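Values below derive from 48-hour exposures of cells grown in 96-well plates, with endpoints linearly interpolated between the two concentrations bracketing the appropriate inhibition level. Definition used: TGI = concentration required for complete inhibition of growth.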

For `S=C1NC2=C(COc3ccccc32)C(c2ccc(Cl)cc2)N1` (stereo not drawn), the TGI in test [1] was 41.6 µM; in test [2], 41.7 µM; in test [3] it was 34.7 µM; in test [4], 35.8 µM; in test [5], 8.64 µM.
In the case of `CCOC(=O)c1cc(-n2nnc3ccccc32)cn1C`, the TGI in test [1], in test [2], in test [3], in test [4], in test [6] and in test [5] was greater than 10 µM in each case.
In the case of `COc1cc(C2C3=C(COC3=O)Oc3cc4c(cc32)OCO4)ccc1O` (stereo not drawn), the TGI is greater than 100 µM in test [1]; 29.5 µM in test [2]; greater than 100 µM in test [3]; 0.932 µM in test [4]; 1.31 µM in test [6]; greater than 100 µM in test [5].
`Cc1nc(SCC(=O)Nc2ccc(Cl)cc2)c2sc(=S)n(-c3ccccc3)c2n1`: the TGI in test [1], in test [2], in test [3], in test [4], in test [6] and in test [5] was greater than 10 µM in each case.
For the molecule `COC(=O)N1CC(=O)C(C(=O)NC23CC4CC(CC(C4)C2)C3)C1` (stereo not drawn), the TGI in test [1], in test [2], in test [3] and in test [6] was greater than 100 µM in each case.
Regarding `Cc1cc(S(=O)(=O)N2CCNNC2=O)c(S)cc1Cl`, the TGI in test [1] is greater than 100 µM; in test [2] it was greater than 100 µM; in test [3] it was greater than 100 µM; in test [6], 66.6 µM; in test [5] it was greater than 100 µM.
For `CCCCCCCCCCCCOP(=O)(O)OP(=O)(O)OCC1OC(n2ccc(N)nc2=O)CC1O` (stereo not drawn), the TGI in test [1], in test [2], in test [3], in test [4], in test [6] and in test [5] was greater than 100 µM throughout.
Turning to `CCNC(=O)c1cc(Cl)ccc1NC(=O)C12CC3CC(CC(C3)C1)C2`, the TGI in test [1], in test [2], in test [6] and in test [5] was greater than 100 µM in each case.
On to `N#CC1(C#N)NC(c2ccccc2)C(C#N)(C#N)NC1c1ccccc1` (stereo not drawn), for which the TGI in test [1], in test [2], in test [3], in test [4], in test [6] and in test [5] was greater than 100 µM in each case.
With `C=CC(O)(CBr)CCC(Br)C(=C)C` (stereo not drawn), the TGI in test [1], in test [2], in test [3], in test [4], in test [6] and in test [5] was greater than 10 µM throughout.
`Cc1ccc(C2(c3ccc(Cl)cc3)c3ccccc3C3=NCCN32)cc1` (stereo not drawn): the TGI worked out at 20.7 µM in test [1]; 29.4 µM in test [2]; 20 µM in test [3]; 20.7 µM in test [4]; 29.7 µM in test [5].
With `Clc1cc2nn(C3CCCCO3)nc2cc1Cl` (stereo not drawn), the TGI in test [1], in test [2], in test [3], in test [4], in test [6] and in test [5] was greater than 100 µM throughout.
Consider `CSC1NC(c2ccccc2)=C(C#N)C(=O)N1C1OCC(OC(C)=O)C(OC(C)=O)C1OC(C)=O` (stereo not drawn), for which the TGI in test [1], in test [2], in test [3], in test [4], in test [6] and in test [5] was greater than 100 µM each time.
On to `Nc1ccc2[nH]c(-c3cccc(C(F)(F)F)c3)cc(=O)c2c1`, for which the TGI in test [1], in test [2], in test [3], in test [4], in test [6] and in test [5] was greater than 100 µM in each case.
For the molecule `CCCNC(=S)N/N=C(\C)c1ccc(S(=O)(=O)N(C)c2ccccc2)cc1`, the TGI in test [1] is greater than 100 µM; in test [2], greater than 100 µM; in test [3], greater than 100 µM; in test [4], 97 µM; in test [6], greater than 100 µM; in test [5], greater than 100 µM.
As to `Cc1ccc(C(=O)Nc2ccc(CP(=O)(O)O)cc2)cc1NC(=O)c1cccc(N)c1`, the TGI in test [1], in test [2], in test [3], in test [4], in test [6] and in test [5] was greater than 100 µM throughout.
For `COC(=O)C1CCN(C(=O)OC(C)(C)C)CC1`, the TGI in test [1], in test [2], in test [3], in test [6] and in test [5] was greater than 100 µM in each case.
As for `O=c1c2ccccc2[nH]n1Cc1ccccc1`, the TGI in test [1], in test [2], in test [3], in test [4], in test [6] and in test [5] was greater than 100 µM in each case.
For `COc1cc(CSc2ccc(O)cc2)cc(OC)c1OC`, the TGI in test [1], in test [2], in test [3], in test [4], in test [6] and in test [5] was greater than 100 µM throughout.
`COc1cccc(/C=N/NC(=O)CSCC(=O)N/N=C/c2cccc(OC)c2OC)c1OC`: the TGI in test [1], in test [2], in test [3], in test [4], in test [6] and in test [5] was greater than 100 µM each time.
Turning to `COc1ccc([N+](=O)[O-])c2c(NCCCN(C)C)ccnc12`, the TGI in test [1] was 12 µM; in test [2] it was greater than 48.5 µM; in test [3] it was 11.4 µM; in test [4] it was 43.2 µM; in test [6], 3.34 µM; in test [5], 34 µM.
